# Reference: US20080300298A1, “Honokiol Derivates For the Treatment of Proliferative Disorders” (priority 2005, published 2008)
# Tests used:
# [1] = system: MM.1S cells; assay: APO2.7 staining; format: cell-based, human; conditions: 10 ug/ml, 24 h
# Procedure: (§1) Assessment of HNK-induced cytotoxicity against patient MM cells: […] A CD38^high fraction enriched for MM cells was determined in side and forward scatter panel in each case. The expression of CD138 on gated cells was also evaluated. After HNK-treatment for 48 h, cells were harvested and percentage of CD38^high cells with or without HNK-treatment was evaluated. Cell cycle analysis: MM cells cultured with HNK were harvested, fixed with 70% ethanol, and pretreated with 250 μg/mL of RNAse (Sigma, St Louis, Mo.). Cells were stained with propidium iodide (PI; 50 μg/mL; Sigma, St Louis, Mo.), and cell cycle profile was determined by using the program M software on an EPICS XL flow cytometer (Beckman Coulter, Hialeah, Fla.). Detection of apoptosis and caspase-3 activity: TdT-mediated d-UTP nick end labeling (TUNEL) assay (MBL, Nagoya, Japan) and APO 2.7 staining (Immunotech, Marseille, France) were used to determine apoptosis. In brief, cells were fixed and permeabilzed by 4% paraformaldehyde and 70% ethanol, respectively, and incubated with a mixture of FITC-dUTP and TdT for 1 h at 37° C. for TUNEL assay. For detection of mitochondrial membrane protein 7A6 expression on apoptotic cells, cells were incubated with APO 2.7 reagent for 20 minutes. Fluorescence intensity of TUNEL and APO 2.7 staining was determined using on EPICS XL flow cytometer. Cytotoxicity was determined by trypan blue exclusion assay. […] Cell growth and induction of apoptosis were determined both by colorimetric assay and now cytometric detection of APO2.7 after 48 h treatment. […] Proliferation of MM cells was then assessed by [^3H]-thymidine uptake. […] DNA synthesis was measured by [^3H]-thymidine uptake. […] Angiogenesis assay: The anti-angiogenic effect of HNK was determined using an In Vitro Angiogenesis Assay Kit (Chemicon, Temecula, Calif.). […] After 6 h, tube formation by endothelial cells was evaluated. Direct toxicity of HNK against HUVEC was determined by calorimetric assay. […]
# [2] = system: RPM18226 cells; assay: APO2.7 staining; format: cell-based, human; conditions: RPM18226, 10 ug/ml, 24 h
# Procedure: as §1
# [3] = system: normal PBMNCs; assay: APO2.7 staining; format: cell-based, human; conditions: 15 ug/ml, 48 h, n=3
# Procedure: as §1
# [4] = system: SVR angiosarcoma; assay: in vivo growth of SVR angiosarcoma; conditions: nude mice
# Description: FIG. 18 depicts the effect of honokiol on in vivo growth of SVR angiosarcoma in nude mice.
# FIG. 18 illustrates the effect of honokiol on in vivo growth of SVR angiosarcoma in nude mice.
# [5] = system: AMP kinase in PC3 cells; assay: AMPK activation (Western blot); format: cell-based, human; conditions: normoxic and hypoxic conditions
# Procedure: Bharti, A. C. et al (2004) Blood 103, 3175-3184; Arbiser, J. L et al (1998) Mol. Med. 4, 376-383; Woods, A. et al (2003) Current Biology 13, 2004-2008; Shaw, R. J. et al (2004) PNAS 101, 3329-3335; Buzzai, M. et al (2005) Oncogene 24, 4165-4173). […] PC3 cells were treated with honokiol in normoxia (left) or hypoxia (right). In both cases, HIF-1a induction is dose dependent, and in the case of hypoxia, at least additive. Compounds can be tested on the p53 deficient PC3 human prostate cancer cell line, to see whether treatment results in activation of AMPK as in FIG. 20. PC3 cells can be treated with compound or vehicle for 24 hours, then proteins harvested and analyzed by Western blot for phosphorylation of the alpha subunit of AMPK, a marker of AMPK activation. In addition, phosphorylation of a substrate of AMPK, acetyl CoA carboxylase (ACC) can be monitored by Western blot.
# [6] = system: HIF-1a in PC3 cells; assay: HIF-1a induction; format: cell-based, human; conditions: normoxia or hypoxia
# Procedure: Bharti, A. C. et al (2004) Blood 103, 3175-3184; Arbiser, J. L et al (1998) Mol. Med. 4, 376-383; Woods, A. et al (2003) Current Biology 13, 2004-2008; Shaw, R. J. et al (2004) PNAS 101, 3329-3335; Buzzai, M. et al (2005) Oncogene 24, 4165-4173). […] PC3 cells were treated with honokiol in normoxia (left) or hypoxia (right). In both cases, HIF-1a induction is dose dependent, and in the case of hypoxia, at least additive.
# [7] = system: heart AMPKK; assay: direct activation of AMPKK in vitro; format: biochemical
compound,measurement,setting,value
"C=CCc1ccc(O)c(-c2ccc(O)c(CC=C)c2)c1 [HNK, Honokiol]",APO2.7 positive cells,[1],21.7±3.4%
same,APO2.7 positive cells,[2],32.9±0.6%
same,APO2.7 positive cells in normal PBMNCs,[3],did not induce APO2.7 positive cells
same,in vivo growth of SVR angiosarcoma,[4],effective against tumors in vivo
same,toxicity to the host animal,[4],nontoxic to the host animal
same,phosphorylation (activation) of AMP kinase,[5],increased phosphorylation (activation) of AMP kinase
same,HIF-1a induction,[6],activated HIF-1a in prostate cancer cells in a dose dependent manner
same,direct activation of heart AMPKK,[7],does not directly activate heart AMPKK in vitro
